According to PMC9227944, “Simultaneous Spray Drying for Combination Dry Powder Inhaler Formulations” (Pharmaceutics, 2022):
Converted amounts (≈) assume the structure as drawn.

What was measured:
[1] = Equilibrium solubility of API and excipients in spray solvents (TGA of saturated supernatant)
Experimental: The solutions were centrifuged to remove excess solids. A total of 50 µL of the supernatant was pipetted into an aluminum pan and placed into a Thermogravimetric Analyzer (Discovery TGA, TA Instruments, New Castle, DE, USA). The sample was heated to 130 °C at a ramp rate of 50 °C/min and then held isothermal for 10 min to allow all of the solvent to evaporate. The final mass of the sample (of the known 50 µL volume) was recorded and used to determine the solubility in mg/mL. Samples were measured in triplicate.
Solubility screening was performed on the three small molecule APIs and the L-leucine excipient in water, 90/10 methanol/water and 80/20 ethanol/water by weight. These solvent ratios were chosen to maximize the solubility of L-leucine and API. Additional details on solubility and formulation selection can be found in the Supplementary Information.

[2] = target: T1, human recombinant VEGF (Homo sapiens, UniProt P15692); experiment: VEGF binding competitive ELISA assay; conditions: compared with BEV stock positive control
T1 construct: purchased R&D Systems
T1 sequence (P15692 1-191 isoform P15692-4): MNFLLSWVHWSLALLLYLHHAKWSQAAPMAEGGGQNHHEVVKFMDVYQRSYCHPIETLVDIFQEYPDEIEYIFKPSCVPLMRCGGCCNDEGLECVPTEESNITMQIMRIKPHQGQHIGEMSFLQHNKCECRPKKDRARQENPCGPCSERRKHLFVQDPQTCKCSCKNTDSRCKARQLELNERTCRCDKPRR
Experimental: Spray-dried powders or as-received API were reconstituted to a 4 mg/mL active in the buffered saline and allowed to dissolve for 60 min. […] Standards were prepared according to the kit protocol.
After incubation, 50 µL of the assay diluent was added to each of the wells of the supplied plate. A total of 200 µL each of the sample (in triplicate) and standards were added to respective wells and incubated for 2 h at ambient temperature. The plate was washed three times with 400 µL of the kit’s wash buffer, then 200 µL of the VEGF-conjugate was added. The plate was incubated for another 2 h, then washed again three times, as previously. A 1:1 mixture of the kit’s color reagent A and B were mixed, then 200 µL was added to each well. After a 30 min incubation at ambient temperature, 50 µL of stop solution was added to each well. The absorbances were read on an M5e plate reader (Molecular Devices, San Jose, CA, USA) using a 450 nm detection wavelength and 540 nm as the blank wavelength for baseline correction. The quantified concentration of unbound VEGF in pg/mL was reported. All samples were analyzed in triplicate.
Briefly, reconstituted simul-spray powders were incubated with VEGF protein in the assay buffer. Next, the quantity of unbound VEGF in the solution was quantified by a commercially available VEGF ELISA assay kit.

[3] = Chemical stability in solution; assay type: physicochemical; conditions: bevacizumab and cisplatin in the same aqueous solution
[4] = ligand exchange; cited from earlier work
[5] = water, thermodynamic from solid, Solubility, mg/mL in Water
[6] = organic solvent or mixture, thermodynamic from solid, Solubility, mg/mL in 90/10 Methanol/Water

SMILES	solubility ([1]; 80/20 ethanol/water by weight, organic solvent or mixture, thermodynamic from solid, Solubility, mg/mL in 80/20 Ethanol/Water, 80/20 ethanol/water by mass)	solubility ([1]; 90/10 methanol/water by weight, organic solvent or mixture, thermodynamic from solid, Solubility, mg/mL in 90/10 Methanol/Water, 90/10 methanol/water by mass)	solubility ([1]; water, Solubility in water at neutral pH, water at neutral pH)	solubility [1, 5]	VEGF inhibition (in words) [2]	Chemical stability when co-dissolved [3]	Chemical stability in aqueous solution [4]	Solubility in water at neutral pH [1]	solubility [1, 6]	Solubility, mg/mL in 80/20 Ethanol/Water [1]	solubility ([1]; organic solvent or mixture, thermodynamic from solid, Solubility, mg/mL in 80/20 Ethanol/Water)
C#Cc1cccc(Nc2ncnc3cc(OCCOC)c(OCCOC)cc23)c1 [ERL, erlotinib]	< 1000 µg/mL	25000 µg/mL (≈ 63.5 mM)	< 100 µg/mL	< 1000 µg/mL	do not inhibit VEGF measurably	–	–	–	–	–	–
N.N.[Cl][Pt][Cl] [CP, cisplatin]	–	–	–	–	do not inhibit VEGF measurably	not chemically stable when co-dissolved in the same solution	not chemically stable in an aqueous solution for longer than a few hours	–	–	–	–
CC(=O)O[C@H]1C(=O)[C@@]2(C)[C@H]([C@H](OC(=O)c3ccccc3)[C@]3(O)C[C@H](OC(=O)[C@H](O)[C@@H](NC(=O)c4ccccc4)c4ccccc4)C(C)=C1C3(C)C)[C@]1(OC(C)=O)CO[C@@H]1C[C@@H]2O [PTX, paclitaxel]	–	–	–	< 1000 µg/mL	do not inhibit VEGF measurably	–	–	sparingly soluble	< 1000 µg/mL	–	–
CC(C)C[C@H](N)C(=O)O [L-Leucine, L-leucine]	–	–	–	21000 µg/mL (≈ 160 mM)	–	–	–	–	2500 µg/mL (≈ 19.1 mM)	2.0 mg/mL (≈ 15.2 mM)	1700 µg/mL (≈ 13 mM)
